Measurements published in PubChem BioAssay (NCI).
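These data come from cells grown in 96-well plates and exposed to compound for 48 hours at five concentrations. TGI denotes the concentration required for complete inhibition of growth.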

How the values were obtained:
Test in all cases: NCI tumour cell line growth inhibition, 48 h
OVCAR-8 ovarian = system: OVCAR-8 ovarian
SK-OV-3 ovarian = system: SK-OV-3 ovarian
NCI-H460 lung = system: NCI-H460 lung
NCI-H23 lung = system: NCI-H23 lung
CCRF-CEM leukemia = system: CCRF-CEM leukemia
SW-620 colon = system: SW-620 colon
A549 NSCLC = system: A549 NSCLC
OVCAR-3 ovarian = system: OVCAR-3 ovarian
NCI-H522 lung = system: NCI-H522 lung
SK-MEL-5 melanoma = system: SK-MEL-5 melanoma
IGROV1 ovarian = system: IGROV1 ovarian
HL-60(TB) leukemia = system: HL-60(TB) leukemia
SK-MEL-2 melanoma = system: SK-MEL-2 melanoma
UACC-62 melanoma = system: UACC-62 melanoma
OVCAR-4 ovarian = system: OVCAR-4 ovarian
DLD-1 colon = system: DLD-1 colon
SNB-19 CNS = system: SNB-19 CNS
MCF7 breast = system: MCF7 breast
OVCAR-5 ovarian = system: OVCAR-5 ovarian
SNB-78 CNS = system: SNB-78 CNS
HCT-15 colon = system: HCT-15 colon
EKVX NSCLC = system: EKVX NSCLC
P388/ADR leukemia = system: P388/ADR leukemia
CAKI-1 renal = system: CAKI-1 renal
SN12C renal = system: SN12C renal
SF-268 CNS = system: SF-268 CNS
UO-31 renal = system: UO-31 renal
SF-539 CNS = system: SF-539 CNS
SK-MEL-28 melanoma = system: SK-MEL-28 melanoma
HOP-92 NSCLC = system: HOP-92 NSCLC
NCI-H226 lung = system: NCI-H226 lung
SN12K1 renal = system: SN12K1 renal
MALME-3M melanoma = system: MALME-3M melanoma
KM20L2 colon = system: KM20L2 colon
HOP-62 NSCLC = system: HOP-62 NSCLC
U251 CNS = system: U251 CNS
HT29 colon = system: HT29 colon
M19-MEL melanoma = system: M19-MEL melanoma
HCT-116 colon = system: HCT-116 colon
SNB-75 CNS = system: SNB-75 CNS
DMS 114 small cell lung = system: DMS 114 small cell lung
DMS 273 small cell lung = system: DMS 273 small cell lung
LOX IMVI melanoma = system: LOX IMVI melanoma
NCI/ADR-RES ovarian = system: NCI/ADR-RES ovarian
SF-295 CNS = system: SF-295 CNS
HOP-18 NSCLC = system: HOP-18 NSCLC
COLO 205 colon = system: COLO 205 colon
RXF 393 renal = system: RXF 393 renal
UACC-257 melanoma = system: UACC-257 melanoma
XF 498 CNS = system: XF 498 CNS
MOLT-4 leukemia = system: MOLT-4 leukemia
HCC-2998 colon = system: HCC-2998 colon
RPMI-8226 leukemia = system: RPMI-8226 leukemia
A498 renal = system: A498 renal
KM12 colon = system: KM12 colon
K-562 leukemia = system: K-562 leukemia

CC(C)NC(=O)OCc1c2c(n(C)c1COC(=O)NC(C)C)-c1ccccc1CC2
TGI (OVCAR-8 ovarian): 31.1 µM | TGI (SK-OV-3 ovarian): 42.6 µM | TGI (NCI-H460 lung): 28.8 µM | TGI (NCI-H23 lung): 19.7 µM | TGI (CCRF-CEM leukemia): 7.63 µM | TGI (SW-620 colon): 26 µM | TGI (A549 NSCLC): 89.9 µM | TGI (OVCAR-3 ovarian): 27.3 µM | TGI (NCI-H522 lung): 18.1 µM | TGI (SK-MEL-5 melanoma): 29.1 µM | TGI (IGROV1 ovarian): 29.2 µM | TGI (HL-60(TB) leukemia): > 32 µM | TGI (SK-MEL-2 melanoma): 29.5 µM | TGI (UACC-62 melanoma): 25.5 µM | TGI (OVCAR-4 ovarian): 34.5 µM | TGI (DLD-1 colon): 16.9 µM | TGI (SNB-19 CNS): 35.2 µM | TGI (MCF7 breast): 22.4 µM | TGI (OVCAR-5 ovarian): 31.6 µM | TGI (SNB-78 CNS): 72 µM | TGI (HCT-15 colon): 27.2 µM | TGI (EKVX NSCLC): 33.6 µM | TGI (P388/ADR leukemia): 5.27 µM | TGI (CAKI-1 renal): 25.5 µM | TGI (SN12C renal): 27.4 µM | TGI (SF-268 CNS): 28.8 µM | TGI (UO-31 renal): 32.4 µM | TGI (SF-539 CNS): 34.3 µM | TGI (SK-MEL-28 melanoma): 26.2 µM | TGI (HOP-92 NSCLC): 22.2 µM | TGI (NCI-H226 lung): 31.4 µM | TGI (SN12K1 renal): 24.4 µM | TGI (MALME-3M melanoma): 19.2 µM | TGI (KM20L2 colon): 28 µM | TGI (HOP-62 NSCLC): 18.6 µM | TGI (U251 CNS): 22.5 µM | TGI (HT29 colon): 30.3 µM | TGI (M19-MEL melanoma): 23 µM | TGI (HCT-116 colon): 23.2 µM | TGI (SNB-75 CNS): 29.4 µM | TGI (DMS 114 small cell lung): 17 µM | TGI (DMS 273 small cell lung): 27.3 µM | TGI (LOX IMVI melanoma): 16.9 µM | TGI (NCI/ADR-RES ovarian): 32.2 µM | TGI (SF-295 CNS): 30.2 µM | TGI (HOP-18 NSCLC): 13.9 µM | TGI (COLO 205 colon): 21.6 µM | TGI (RXF 393 renal): 27.3 µM | TGI (UACC-257 melanoma): 29.7 µM | TGI (XF 498 CNS): 28.2 µM | TGI (MOLT-4 leukemia): 8.95 µM | TGI (HCC-2998 colon): 26.3 µM | TGI (RPMI-8226 leukemia): 17.3 µM | TGI (A498 renal): 61.7 µM | TGI (KM12 colon): 29 µM | TGI (K-562 leukemia): > 38.5 µM
